Laboratory results as given in patent US7018987B1 (priority 1998, dated 2006).

Key:
[1] = tested on: BXPC-3; format: cell-based, Human; settings: BXPC-3, 48 hours
[2] = tested on: eight bacteria and two fungi tested; experiment: Disk susceptibility testing, whole microbe panel; format: cell-based; settings: for Microbe(s) inhibited: at 100 μg/disk, eight bacteria and two fungi
[3] = tested on: P388 lymphocytic leukemia; format: cell-based, Murine; settings: murine P-388 leukemia, 48 hours
[4] = tested on: DU-145; format: cell-based, Human; settings: DU-145, 48 hours
[5] = tested on: NCI-H460; format: cell-based, Human; settings: NCI-H460, 48 hours
[6] = tested on: SK-Mel-3; format: cell-based, Human; settings: SK-Mel-3, 48 hours
[7] = tested on: SW1736; format: cell-based, Human; settings: SW1736, 48 hours
[8] = tested on: FADU; format: cell-based, Human; settings: FADU, 48 hours
[9] = tested on: SK-N-SH; format: cell-based, Human; settings: SK-N-SH, 48 hours
[10] = Solubility in water; settings: mg per 1 ml water at 25° C.
[11] = tested on: Cryptococcus neoformans; experiment: Disk susceptibility testing, Cryptococcus neoformans; format: cell-based
[12] = tested on: Neisseria gonorrhoeae; format: cell-based; settings: disk susceptibility; for Minimum inhibitory amount per disk: Neisseria gonorrhoeae
[13] = tested on: Candida albicans; experiment: Disk susceptibility testing, Candida albicans; format: cell-based
[14] = tested on: full-panel NCl screen; settings: full-panel NCI screen, previously reported, cited from earlier work

Imidazole combretastatin A-4 3-O-phosphate [Compound 5g]
GI50 Pancreas BXPC-3 [1]: 0.39 µg/mL
Microbe(s) inhibited [2]: * (At 100 μg/disk no inhibition of the eight bacteria and two fungi tested.)
ED50 P-388 [3]: 0.0025 µg/mL
GI50 Prostate DU-145 [4]: 0.001 µg/mL
GI50 Lung-NSC NCI-H460 [5]: 0.004 µg/mL
GI50 Melanoma SK-Mel-3 [6]: 0.01 µg/mL
GI50 Thyroid SW1736 [7]: 0.011 µg/mL
GI50 Pharynx FADU [8]: 0.01 µg/mL
GI50 Neuroblast SK-N-SH [9]: 0.01 µg/mL

Zinc combretastatin A-4 3′-O-phosphate [Compound 5f]
GI50 Pancreas BXPC-3 [1]: 1.1 µg/mL
Microbe(s) inhibited [2]: * (At 100 μg/disk no inhibition of the eight bacteria and two fungi tested.)
ED50 P-388 [3]: 0.0343 µg/mL
GI50 Prostate DU-145 [4]: 0.0062 µg/mL
GI50 Lung-NSC NCI-H460 [5]: 0.0074 µg/mL
GI50 Melanoma SK-Mel-3 [6]: 1.0 µg/mL
GI50 Thyroid SW1736 [7]: 0.059 µg/mL
GI50 Pharynx FADU [8]: 0.0070 µg/mL
GI50 Neuroblast SK-N-SH [9]: 0.024 µg/mL
Solubility [10]: 11 mg/mL

Pyrazole combretastatin A-4 3-O-phosphate [Compound 5k]
GI50 Pancreas BXPC-3 [1]: 0.23 µg/mL
Microbe(s) inhibited [2]: * (At 100 μg/disk no inhibition of the eight bacteria and two fungi tested.)
ED50 P-388 [3]: 0.0023 µg/mL
GI50 Prostate DU-145 [4]: 0.01 µg/mL
GI50 Lung-NSC NCI-H460 [5]: 0.01 µg/mL
GI50 Melanoma SK-Mel-3 [6]: 0.01 µg/mL
GI50 Thyroid SW1736 [7]: 4.6 µg/mL
GI50 Pharynx FADU [8]: 0.01 µg/mL
GI50 Neuroblast SK-N-SH [9]: 0.014 µg/mL

Piperidine combretastatin A-4 3′-O-phosphate [Compound 5j]
GI50 Pancreas BXPC-3 [1]: 0.30 µg/mL
Microbe(s) inhibited [2]: * (At 100 μg/disk no inhibition of the eight bacteria and two fungi tested.)
ED50 P-388 [3]: 0.0029 µg/mL
GI50 Prostate DU-145 [4]: 0.01 µg/mL
GI50 Lung-NSC NCI-H460 [5]: 0.01 µg/mL
GI50 Melanoma SK-Mel-3 [6]: 0.01 µg/mL
GI50 Thyroid SW1736 [7]: 0.50 µg/mL
GI50 Pharynx FADU [8]: 0.01 µg/mL
GI50 Neuroblast SK-N-SH [9]: 0.017 µg/mL
Solubility [10]: 5 mg/mL

Glucosamine combretastatin A-4 3′-O-phosphate [Compound 5o]
GI50 Pancreas BXPC-3 [1]: 4.5 µg/mL
Microbe(s) inhibited [2]: * (At 100 μg/disk no inhibition of the eight bacteria and two fungi tested.)
ED50 P-388 [3]: 0.0164 µg/mL
GI50 Prostate DU-145 [4]: 0.026 µg/mL
GI50 Lung-NSC NCI-H460 [5]: 0.034 µg/mL
GI50 Thyroid SW1736 [7]: 0.061 µg/mL
GI50 Pharynx FADU [8]: 0.015 µg/mL
GI50 Neuroblast SK-N-SH [9]: 0.016 µg/mL
Solubility [10]: 15 mg/mL

Lithium combretastatin A-4 3-O-phosphate [Compound 5c]
GI50 Pancreas BXPC-3 [1]: 0.31 µg/mL
Microbe(s) inhibited [2]: * (At 100 μg/disk no inhibition of the eight bacteria and two fungi tested.)
ED50 P-388 [3]: 0.0012 µg/mL
GI50 Prostate DU-145 [4]: 0.0025 µg/mL
GI50 Lung-NSC NCI-H460 [5]: 0.004 µg/mL
GI50 Thyroid SW1736 [7]: 0.030 µg/mL
GI50 Pharynx FADU [8]: 0.003 µg/mL
GI50 Neuroblast SK-N-SH [9]: 0.016 µg/mL

Piperazine combretastatin A-4 3′-O-phosphate [Compound 5i]
GI50 Pancreas BXPC-3 [1]: 0.19 µg/mL
antimicrobial growth inhibition (in words) ([2]; disk susceptibility, bacteria and fungi tested): inhibitory to opportunistic fungi
ED50 P-388 [3]: 0.0016 µg/mL
GI50 Prostate DU-145 [4]: 0.0011 µg/mL
Minimum inhibitory concentration [11]: 25–50 μg/disk
Minimum inhibitory amount per disk [12]: 25–50 μg/disk
GI50 Lung-NSC NCI-H460 [5]: 0.0028 µg/mL
GI50 Melanoma SK-Mel-3 [6]: 0.0036 µg/mL
GI50 Thyroid SW1736 [7]: 23.5 µg/mL
Minimum inhibitory concentration [13]: 50–100 μg/disk
GI50 Pharynx FADU [8]: 0.0018 µg/mL
GI50 Neuroblast SK-N-SH [9]: 0.021 µg/mL

Sodium (Z)-combretastatin A-4 3′-O-phosphate [Compound 3d]
GI50 Pancreas BXPC-3 [1]: 0.23 µg/mL
ED50 P-388 [3]: 0.00292 µg/mL
GI50 Prostate DU-145 [4]: 0.0072 µg/mL
Minimum inhibitory amount per disk [12]: 50–100 μg/disk
growth inhibition of Neisseria gonorrhoeae (in words) [12]: inhibited growth
GI50 Lung-NSC NCI-H460 [5]: 0.0035 µg/mL
Pearson correlation coefficient, TGI-COMPARE differential cytotoxicity profile versus combretastatin A-4 1a [14]: 0.91
GI50 ([14]; read-out: mean panel GI50 concentration, quadruplicate, three concentration ranges): 6.89 nM
GI50 Thyroid SW1736 [7]: 0.0061 µg/mL
GI50 Pharynx FADU [8]: 0.0045 µg/mL
GI50 Neuroblast SK-N-SH [9]: 0.0025 µg/mL
Solubility [10]: 20 mg/mL

Pyridine combretastatin A-4 3′-O-phosphate [Compound 5l]
GI50 Pancreas BXPC-3 [1]: 11.6 µg/mL
Microbe(s) inhibited [2]: * (At 100 μg/disk no inhibition of the eight bacteria and two fungi tested.)
ED50 P-388 [3]: <0.001 µg/mL
GI50 Prostate DU-145 [4]: 0.036 µg/mL
GI50 Lung-NSC NCI-H460 [5]: 0.038 µg/mL
GI50 Melanoma SK-Mel-3 [6]: 0.35 µg/mL
GI50 Thyroid SW1736 [7]: 0.01 µg/mL
GI50 Pharynx FADU [8]: 0.032 µg/mL
GI50 Neuroblast SK-N-SH [9]: 0.03 µg/mL
Solubility [10]: 3 mg/mL
